The record followed here is PMC7391726, “Fatty acid mimetic PBI-4547 restores metabolic homeostasis via GPR84 in mice with non-alcoholic fatty liver disease” (Scientific Reports, 2020).

One test has as its target T1, GPR40 (Homo sapiens, UniProt O14842).
T1 construct: expressed in transfected cells; host or cells: HEK293
Briefly: BRET Gαq / Gαi2 activation biosensors in HEK293 cells transfected with GPR40. It is filed as cell-based. Here is the method:
Figure 1 PBI-4547 binding and activity on GPR84, GPR40, GPR120, and PPAR receptors. (A) Chemical structure of PBI-4547. (B) Gi pathway activation was monitored in HEK293 cells transfected with GPR84 and the Gαi2 activation biosensor. Cells were co-treated with […] sodium decanoate and increasing concentrations of PBI-4547, and BRET variation compared with vehicle was measured. (C) β-arrestin 2 recruitment to activated GPR120 receptor was monitored in HEK293 cells transfected with RLuc8-β-arrestin 2 and GPR120-GFP10. (D) Cells transfected with GPR40 and Gαq or Gαi2 activation biosensor were exposed to increasing concentrations of PBI-4547 or to 500 µM of sodium decanoate, and BRET variation compared with vehicle was measured. Cells were exposed to increasing concentrations of PBI-4547 or to 100 µM of GW9508, and BRET variation compared with vehicle was measured. […] Data in (B–D) are expressed as means ± SEM of 4–5 experiments; data in (E,F) are from a representative experiment from a total of 3 to 4 independent experiments. […]
BRET measurements in transiently transfected HEK293 cells were performed as previously described. Ligands were incubated with cells at room temperature for 10 min (G protein biosensors) or 25 min (β-arrestin/GPR120) before collecting BRET[2] readings between Rluc8 and GFP10.
(In BRET a luciferase serves as donor, and the signal depends on an acceptor being close.)

The test system of test [1] is HepG2 hepatocytes. Description: 14C-palmitate β-oxidation rate in HepG2 hepatocytes. It is filed as cell-based. The protocol: (§1) Moreover, hepatic expression of several genes involved in glucose metabolism including Pklr (pyruvate kinase L/R), G6pc (glucose-6-phosphatase, catalytic) and Slc2a2 (Glut2) was normalized by PBI-4547 (Fig. 4B). […] To test this hypothesis, mitochondrial respiration in HepG2 hepatocytes was measured (Fig. 4C). […] However, it did decrease maximal respiration and ATP production, in agreement with the metabolomics results.
(§2) Figure 4 Effects of PBI-4547 on glucose and FA metabolism in liver. (A) Relative gene expression levels of glucose and FA-related metabolism in liver from STD, HFD and HFD + PBI-4547 mice. Data are presented as geometric mean ± SEM (n ≥ 6 per group, one-way ANOVA with Dunnett’s multicomparison test vs HFD group). (B) 1H-NMR metabolic profiling in liver tissues. (C) Oxygen Consumption Rate (OCR) and Extracellular Acidifcation Rate (ECAR) in HepG2 hepatocytes. Measurements of basal respiration, maximal respiration, ATP production and proton leak in HepG2 hepatocytes treated or not with PBI-4547. (D) Oxidation rate of ^14C-palmitate in HepG2 hepatocytes treated or not with PBI-4547. Data are presented as mean ± SEM (n = 3, Student t test Ctrl vs PBI-4547). See also Fig. S2.

The test system of test [2] is HepG2 hepatocytes. Briefly: Mitochondrial respiration (Seahorse OCR) in HepG2 hepatocytes. It is filed as cell-based. Particulars: HepG2, 24 h treatment. The protocol:
as §1, §2
Oxygen consumption rate (OCR) and extracellular acidification rate (ECAR) were measured with a Seahorse XF96 as per manufacturer’s protocol (Agilent). Briefly, 8 × 10^4 HepG2 cells were plated onto Seahorse XF96 96-well plates for 24 h prior to stimulation. The next day, cells were treated with PBI-4547 or with vehicle control for 24 h. Cells were subjected to a mitochondrial stress test with serial injections of Oligomycin (1 μM; ATPase inhibitor), FCCP (1 μM; mitochondrial uncoupler) and Rotenenone/Antimycin A (1 μM; complex I/III inhibitor).

A further test has as its system standard diet-fed mice. Description: Standard diet-fed mice. It is filed as in vivo, mouse. The text has this:
The well-established high-fat diet (HFD) mouse model of obesity was used to study the impact of PBI-4547 on the onset and progression of NAFLD. A 14-week HFD regimen led to significant weight gain in both male and female mice. […] Moreover, PBI-4547 decreased serum triglycerides while enhancing adiponectin levels. […] Of note, the effects of PBI-4547 on bodyweight, food consumption, glucose tolerance, fasting blood glucose, insulin resistance and HOMA-β indices were absent in standard diet-fed mice (Table S1).
WT or Gpr84^−/− mice, as previously described, (aged 10–14 weeks at the beginning of the experiment) were either fed a standard diet (STD) or a high-fat diet (HFD) (Envigo #TD.06414) for 14 weeks. At this point, mice were administered either vehicle (water) or PBI-4547 (10 mg/kg) on a daily basis for 6 (WT study) or 8 (WT vs KO study) weeks by gastric gavage, and were sacrificed thereafter. Liver and WAT tissues were fixed in 10% formalin for histological analyses or flash frozen in liquid nitrogen for RT-PCR analyses. All animal studies were reviewed and approved by the animal care and use committee of the Institut National de la Recherche Scientifique – Armand-Frappier (Laval, QC, Canada) and the University of Ottawa’s Animal Care and Veterinary Services (Ottawa, ON, Canada). Protocols were approved and undertaken according to the Canadian Council on Animal Care guidelines.

pEC50: −log10 of the molar value. Read-outs that look alike come from different tables or passages of the source.

One may read the pEC50 as −log10 of the EC50, conventionally taken in molar units.

T1 sequence (O14842 whole entry, species assumed): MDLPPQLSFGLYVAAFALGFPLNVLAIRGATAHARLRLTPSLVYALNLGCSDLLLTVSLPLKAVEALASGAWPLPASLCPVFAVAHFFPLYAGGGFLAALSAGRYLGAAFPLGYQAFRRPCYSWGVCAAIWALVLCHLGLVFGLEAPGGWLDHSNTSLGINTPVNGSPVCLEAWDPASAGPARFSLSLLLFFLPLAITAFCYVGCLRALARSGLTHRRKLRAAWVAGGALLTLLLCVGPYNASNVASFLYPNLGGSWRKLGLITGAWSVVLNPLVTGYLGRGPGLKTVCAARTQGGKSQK

Take `CCCCCc1cc(CCCCC)cc(CC(=O)[O-])c1.[Na+]` [PBI-4547, 2-[3,5-dipentylphenyl]acetate sodium salt]: the pEC50 at GPR40 (Gαi2 biosensor, read-out: EC50, GPR40 Gαi2 biosensor BRET signal decrease) was 4.57. The pEC50 at GPR40 (Gαq biosensor, read-out: EC50, GPR40 Gαq biosensor BRET signal decrease) was 4.52. In the test on HepG2 hepatocytes [1], the “oxidation of 14C-palmitate (β-oxidation rate)” value is given as “dose-dependently increased”. In addition, in the test on HepG2 hepatocytes [2], the ATP production entry is recorded as “decrease”, the “basal oxygen consumption rate (OCR)” value was “did not affect”, the maximal respiration entry is “decrease” and the mitochondrial proton leak entry was “significantly increased”. Also, the “effects on bodyweight, food consumption, glucose tolerance, fasting blood glucose, insulin resistance and HOMA-β indices” value in the test with standard diet-fed mice is “absent”.
